Source: article PMC9268166, “Modeling of Anticancer Sulfonamide Derivatives Lipophilicity by Chemometric and Quantitative Structure-Retention Relationships Approaches” (Molecules, 2022)

Columns and labels:
[1] = C8 chromatography (RP-HPLC), logkw from two gradients with DryLab; type: physicochemical; conditions: for logkw, Table S4: C8 chromatography, pH 7.4, short and long gradient; for logkwC8: pH 7.4, 40 °C, retention factor extrapolated to 0% organic modifier
Excerpt: (§1) For this reason, the next step of our study concerns the characterization of investigated sulfonamide derivatives using a chromatographic approach. Generally, in RP-HPLC, the interactions between solutes and the stationary phase surface are mainly governed by lipophilicity. Consequently, RP-HPLC is the primary tool for assessing the lipophilicity of xenobiotics. […] Generally, the chemical character of target solutes determines interactions between the molecule and the stationary phase that may occur. Considering the large variety of RP-HPLC beds and differences in specific surface area, the energy of the sorbent’s intermolecular interactions between solutes and chemical structures, four different reversed-phase stationary phases and IAM column were investigated during this study. The lipophilicity index was presented as a logkw value, so the retention factor was extrapolated to the pure water after calculation using a protocol based on two gradient measurements and DryLab software.
(§2) Since the biomimetic chromatography experiments are carried out at physiological pH to compare obtained results, all chromatographic experiments have been carried out at pH 7.4. […] Consequently, the chromatography lipophilicity indices refer to the distribution coefficient (logD) values, which better reflect the lipophilicity of ionized substances under physiological conditions.
(§3) For C8, cyanopropyl, and phenyl chromatography, according to the assumption proposed by Snyder and co-workers, appropriate logkw values (i.e., the retention factor logk extrapolated to 0% organic modifier, as an alternative to logP) were obtained. […] Dwell volume for these HPLC systems was measured at 0.780 mL, whereas the obtained dead times for used HPLC columns were equal to 1.530 min, 1.252 min, and 2.335 min for C8, SB-CN, and UK-Phenyl, respectively. The mobile phase was ammonium acetate buffer (50 mM) at pH 7.4 and acetonitrile as an organic modifier in each system. C8 chromatography was performed on Unison UK-C8 column (150 × 2 mm; 3.0 µm. Imtakt; USA) with 0.3 mL/min flow rate. Analyses were carried out in linear gradient from 30 to 100% within 15 min in short gradient and 30 min in long gradient. The Agilent SB-CN column (150 × 4.6 mm; 3.5 µm; Zorbax; USA) was used for the cyanopropyl chromatography. The CN chromatography analyses were carried out in linear gradient from 20 to 100%, which was applied from 0 to 20 min in short gradient, and from 0 to 40 min in long gradient. The flow rate was 1.5 mL/min. The column Unison UK-Phenyl (150 × 2 mm; 3.0 µm; Imtakt; USA) was used to perform phenyl chromatography. The flow rate was set to 0.2 mL/min. The phenyl analyses were carried out in linear gradient from 40 to 100%, which was applied from 0 to 20 min in short gradient, and from 0 to 40 min in long gradient. Each HPLC analysis was run in triplicate; in Tables S2–S6, obtained retention times are listed, whereas representative chromatograms are shown in Figure 9.

[2] = Phenyl (Ph) chromatography, logkw from two gradients with DryLab; type: physicochemical; conditions: for logkw, Table S6: Phenyl chromatography, pH 7.4, short and long gradient; for logkwPh: pH 7.4, 40 °C, retention factor extrapolated to 0% organic modifier
Excerpt: as §1, §2, §3

[3] = Cyanopropyl (CN) chromatography, logkw from two gradients with DryLab; type: physicochemical; conditions: for logkw, Table S5: Cyanopropyl chromatography, pH 7.4, short and long gradient; for logkwCN: pH 7.4, 40 °C, retention factor extrapolated to 0% organic modifier
Excerpt: as §1, §2, §3

[4] = IAM chromatography (IAM-HPLC), IAM.PC.DD2 column; type: physicochemical; conditions: for logkIAM: logkIAM = 0.045 CHIIAM + 0.42; for logkIAM / CHI (CHIIAM), Table S2: pH 7.4; for CHIIAM: pH 7.4, 30 °C, acetonitrile gradient; for CHI (CHIIAM), Table S2: IAM chromatography, from mean of three retention times
Excerpt: as §1, §2
(§4) All HPLC experiments were carried out using a Prominence-1 LC-2030C 3D HPLC system (Shimadzu, Japan) equipped with a DAD detector and controlled by the LabSolution system (version 5.90 Shimadzu, Japan). The stock solutions of solutes were diluted to obtain 100 μg/mL concentrations, and the injected volume was 10 μL. During this study, six different columns in terms of chemical modification of stationary phases were used. Retention times (tR) of investigated sulfonamides were collected, and their detection in all systems was performed at the wavelength characteristic for each compound, summarized in Table S1. For all chromatography systems, analysis was carried out at 40 °C, except for IAM chromatography, in which oven temperature was set to 30 °C. The CHIIAM and CHI18 indices of the target sulfonamides derivatives were obtained using the protocol proposed by Valko and co-workers. C18 chromatography was performed on a Waters-C18 column (150 mm × 3.9 mm; 5.0 µm; Symmetry; USA), with a 1.5 mL/min flow rate. The mobile phase was ammonium acetate buffer (50 mM) at pH 7.4 and acetonitrile as an organic modifier. The linear gradient from 2 to 98% ACN was applied from 0 to 30 min. IAM chromatography was executed on an IAM.PC.DD2 column ([…] × 4.6 mm; 10.0 µm; Regis Technologies, Morton Grove, IL, USA) additionally equipped with an IAM guard column with the same flow rate of 1.5 mL/min. The mobile phase was sodium phosphate buffer (10 mM) at pH 7.4 and acetonitrile as the organic phase. The linear gradient from 0 to 85% was applied within 5.25 min.

[5] = C18 chromatography (RP-HPLC), chromatographic hydrophobicity index; type: physicochemical; conditions: for chromatographic logD: Waters Symmetry C18 column, CHI log D = 0.0525 CHIC18 − 1.467, pH 7.4; for CHIC18: pH 7.4, 40 °C, acetonitrile gradient
Excerpt: as §1, §2, §4

[6] = tested on: human colon cancer (HCT-116); set-up: method as in PMID 29772699, PMID 28122174, PMID 27338337, PMID 26506328; conditions: HCT-116 cell line; cited from earlier work

Compound	logkw, Table S4 [1]	logkwC8 [1]	logkw, Table S6 [2]	logkwPh [2]	logkw, Table S5 [3]	logkwCN [3]	logkIAM [4]	CHIIAM [4]	chromatographic logD [5]	CHIC18 [5]	CHI (CHIIAM), Table S2 [4]	pIC50 [6]
COc1ccc(-c2cnnc(NS(=O)(=O)c3cc(C(=O)Nc4ccccc4)c(Cl)cc3SCc3ccccc3)n2)cc1 [Compound 14]	4.130	4.13	4.310	4.31	2.020	2.02	2.03	35.80	2.68	78.90		4.11
O=C(Nc1ccc(Cl)cc1)c1cc(S(=O)(=O)Nc2nncc(-c3ccc(C(F)(F)F)cc3)n2)c(SCc2ccccc2)cc1Cl [Compound 15]	4.530	4.53	5.074	5.07	2.642	2.64	2.37	43.40	3.39	92.50		4.19
COc1ccc(-c2cnnc(NS(=O)(=O)c3cc(C(=O)Nc4ccc(Cl)cc4)c(Cl)cc3SCc3ccccc3)n2)cc1 [Compound 16]	4.380	4.38	4.476	4.48	2.471	2.47	2.21	39.80	3.04	85.90		4.12
Cc1ccc(NC(=O)c2cc(S(=O)(=O)Nc3nncc(-c4ccc(C(F)(F)F)cc4)n3)c(SCc3ccccc3)cc2Cl)cc1 [Compound 17]	4.490	4.49	4.540	4.54	2.544	2.54	2.28	41.40	3.25	89.90		4.15
COc1ccc(-c2cnnc(NS(=O)(=O)c3cc(C(=O)Nc4ccc(C)cc4)c(Cl)cc3SCc3ccccc3)n2)cc1 [Compound 18]	4.280	4.28	4.228	4.23	2.358	2.36	2.11	37.50	2.88	82.80		4.12

More lines, main results first:

logkw, Table S4 [1]	logkwC8 [1]	logkw, Table S6 [2]	logkwPh [2]	logkw, Table S5 [3]	logkwCN [3]	logkIAM [4]	CHIIAM [4]	chromatographic logD [5]	CHIC18 [5]	CHI (CHIIAM), Table S2 [4]	Compound	pIC50 [6]
4.068	4.07	3.967	3.97	2.216	2.22	1.93	33.60	2.72	79.70		COc1cc(-c2cnnc(NS(=O)(=O)c3cc(C(=O)Nc4ccc(C)cc4)c(Cl)cc3SCc3ccccc3)n2)cc(OC)c1OC [Compound 19]	4.12
4.020	4.02	3.789	3.79	2.211	2.21	1.99	34.90	2.59	77.20		COc1ccc(NC(=O)c2cc(S(=O)(=O)Nc3nncc(-c4ccc(OC)cc4)n3)c(SCc3ccccc3)cc2Cl)cc1 [Compound 20]	4.14
4.440	4.44	4.480	4.48	2.110	2.11	2.28	41.30	3.34	91.60		Cc1cc(S(=O)(=O)Nc2nncc(-c3ccc(C(F)(F)F)cc3)n2)c(SCc2ccc(C(F)(F)F)cc2)cc1Cl [Compound 21]	4.29
4.276	4.28	4.254	4.25	2.356	2.36	2.32		2.97	84.60	42.2	Cc1cc(S(=O)(=O)Nc2nncc(-c3cccc(F)c3)n2)c(SCc2cccc3ccccc23)cc1Cl [Compound 22]	4.31
4.120	4.12	4.401	4.40	2.478	2.48	2.27		3.05	86.10	41.1	COc1ccc(-c2cnnc(NS(=O)(=O)c3cc(C)c(Cl)cc3SCc3cccc4ccccc34)n2)cc1 [Compound 23]	4.42
4.256	4.26	4.088	4.09	2.277	2.28	2.14		3.13	87.50	38.3	Cc1cc(S(=O)(=O)Nc2nncc(-c3cccc(F)c3)n2)c(SCc2ccc(C(F)(F)F)cc2)cc1Cl [Compound 24]	4.17
4.260	4.26	3.886	3.89	2.330	2.33	2.09		2.96	84.40	37.2	COc1ccc(-c2cnnc(NS(=O)(=O)c3cc(C)c(Cl)cc3SCc3ccc(C(F)(F)F)cc3)n2)cc1 [Compound 25]	4.17
